# Test results as given in patent US7186831B2, “5-halo-2-alkyl[1,2,4]triazolo[1,5-a]pyrimidin-7-amines” (priority 2001, dated 2007).
# Assay: log P by HPLC
# Type: physicochemical
# Conditions: EEC directive 79/831 Annex V. A8 by HPLC (gradient method, acetonitrile/0.1% aqueous phosphoric acid)
row,logP,SMILES
1,2.95,CCN(CC)c1c(-c2ccccc2F)c(Cl)nc2nc(C)nn12 [compound 387]
2,3.99,CC1CCCN1c1c(-c2ccccc2Cl)c(Cl)nc2nc(C3CC3)nn12 (centres unmarked) [compound 498]
3,2.74,CCN(CCOC)c1c(-c2c(F)cccc2F)c(Cl)nc2nc(C)nn12 [compound 342]
4,2.03,CNc1c(-c2c(F)cccc2F)c(Cl)nc2nc(C)nn12 [compound 422]
5,3.3,Cc1nc2nc(Cl)c(-c3ccccc3F)c(NOCc3ccc(Cl)cc3)n2n1 [compound 368]
6,2.5,CON(C)c1c(-c2ccccc2F)c(Cl)nc2nc(C)nn12 [compound 377]
7,2.95,"Cc1nc2nc(Cl)c(-c3ccc(F)cc3F)c(NC(C)C(F)(F)F)n2n1 (single isomer, unassigned) [compound 359]"
8,2.74,Cc1nc2nc(Cl)c(-c3ccc(F)cc3F)c(N3CCCC3)n2n1 [compound 281]
9,2.03,Cc1nc2nc(Cl)c(-c3c(F)cccc3F)c(N3CCCC(O)C3)n2n1 (centres unmarked) [compound 314]
10,1.26,Cc1nc2nc(Cl)c(-c3ccccc3F)c(N3CCC(N4CCOCC4)CC3)n2n1 [compound 322]
11,3.05,Cc1nc2nc(Cl)c(-c3ccccc3Cl)c(N3CCC(F)CC3)n2n1 [compound 402]
12,3.74,Fc1cc(F)c(-c2c(Cl)nc3nc(C4CC4)nn3c2N2CCCCO2)c(F)c1 [compound 485]
13,2.72,Cc1nc2nc(Cl)c(-c3ccccc3F)c(NCC3CC3)n2n1 [compound 393]
14,4.59,C=C(C)CN(CC)c1c(-c2ccccc2Cl)c(Cl)nc2nc(C3CC3)nn12 [compound 447]
15,3.71,Clc1ccccc1-c1c(Cl)nc2nc(C3CC3)nn2c1N1CCCCO1 [compound 484]
16,3.9,Fc1cc(F)c(-c2c(Cl)nc3nc(C4CC4)nn3c2NC2CCCC2)c(F)c1 [compound 463]
17,4.29,CN(CC1CC1(Cl)Cl)c1c(-c2ccccc2Cl)c(Cl)nc2nc(C3CC3)nn12 (centres unmarked) [compound 508]

row,logP,SMILES
1,2.02,CNc1c(-c2ccccc2F)c(Cl)nc2nc(C)nn12 [compound 389]
2,2.52,Cc1nc2nc(Cl)c(-c3c(F)cccc3F)c(N(O)C(C)C)n2n1 [compound 426]
3,3.58,Fc1ccc(-c2c(Cl)nc3nc(C4CC4)nn3c2N2CCSCC2)c(F)c1 [compound 519]
4,2.77,C#CCN(C)c1c(-c2c(F)cccc2Cl)c(Cl)nc2nc(C)nn12 [compound 271]
5,4.49,C=C(C)CN(CC)c1c(-c2c(F)cc(F)cc2F)c(Cl)nc2nc(C3CC3)nn12 [compound 448]
6,4.08,CC(C)(C)CNc1c(-c2c(F)cccc2Cl)c(Cl)nc2nc(C3CC3)nn12 [compound 477]
7,3.87,Fc1ccc(-c2c(Cl)nc3nc(C4CC4)nn3c2N2CCc3ccccc3C2)c(F)c1 [compound 522]
8,2.75,Cc1nc2nc(Cl)c(-c3ccccc3F)c(NOC(C)(C)C)n2n1 [compound 374]
9,2.2,CC(=O)NC1CCN(c2c(-c3ccc(F)cc3F)c(Cl)nc3nc(C4CC4)nn23)CC1 [compound 516]
10,3.89,CC(Nc1c(-c2ccc(F)cc2F)c(Cl)nc2nc(C(F)(F)F)nn12)C(F)(F)F (centres unmarked) [compound 358]
11,3.64,CC(C)CNc1c(-c2c(F)cccc2Cl)c(Cl)nc2nc(C3CC3)nn12 [compound 476]
12,2.5,CC(=O)C1CCN(c2c(-c3ccc(F)cc3F)c(Cl)nc3nc(C)nn23)CC1 [compound 289]
13,2.96,"Cc1nc2nc(Cl)c(-c3ccc(F)cc3F)c(NC(C)C(F)(F)F)n2n1 (single isomer, unassigned) [compound 360]"
14,1.37,CCN(CCN(C)C)c1c(-c2ccc(F)cc2F)c(Cl)nc2nc(C)nn12 [compound 353]
15,3.72,CCCN(CC1CCCO1)c1c(-c2c(F)cccc2Cl)c(Cl)nc2nc(C)nn12 (centres unmarked) [compound 277]
16,3.91,Cc1nc2nc(Cl)c(-c3ccccc3Cl)c(N3CCCCC3C)n2n1 (centres unmarked) [compound 401]

# Same assay, conditions: HPLC, gradient method, acetonitrile/0.1% aqueous phosphoric acid; EEC directive 79/831 Annex V. A8
row,logP,SMILES
1,4,CC(C)(C)CNc1c(-c2ccc(F)cc2F)c(Cl)nc2nc(C3CC3)nn12 [compound 646]
2,2.95,Cc1nc2nc(Cl)c(-c3c(F)cccc3Cl)c(N3CCCC3)n2n1 [compound 251]
3,4.32,CC(C)CN(C)c1c(-c2c(F)cccc2Cl)c(Cl)nc2nc(C3CC3)nn12 [compound 698]
4,4.25,CC(C)C(C)Nc1c(-c2ccc(F)cc2Cl)c(Cl)nc2nc(C3CC3)nn12 (racemic) [compound 587]
5,3.06,Cc1nc2nc(Cl)c(-c3c(F)cc(F)cc3F)c(N(N)CC(C)C)n2n1 [compound 129]
6,2.68,CCc1nc2nc(Cl)c(-c3c(F)cc(F)cc3F)c(NCCOC)n2n1 [compound 78]
7,3.96,C=CCN(CC)c1c(-c2ccc(F)cc2F)c(Cl)nc2nc(C3CC3)nn12 [compound 591]
8,4.25,CCN(CC)c1c(-c2c(F)cc(F)cc2F)c(Cl)nc2nc(C(F)(F)F)nn12 [compound 33]
9,2.43,Cc1nc2nc(Cl)c(-c3c(F)cc(F)cc3F)c(N3CCOCC3)n2n1 [compound 89]
10,3.09,Cc1nc2nc(Cl)c(-c3ccccc3Cl)c(N3CCSCC3)n2n1 [compound 235]
11,3.68,CC1CCCN1c1c(-c2c(F)cccc2F)c(Cl)nc2nc(C3CC3)nn12 (centres unmarked) [compound 678]
12,4.37,CC1CCCN(c2c(-c3ccc(F)cc3F)c(Cl)nc3nc(C4CC4)nn23)C1 (centres unmarked) [compound 612]
13,3.07,CC(=O)C1CCN(c2c(-c3ccc(F)cc3F)c(Cl)nc3nc(C4CC4)nn23)CC1 [compound 730]
14,2.84,Cc1nc2nc(Cl)c(-c3c(F)cccc3F)c(N3CC(C)OC(C)C3)n2n1 (centres unmarked) [compound 169]
15,3.43,Cc1nc2nc(Cl)c(-c3c(F)cccc3Cl)c(NC(C)C(C)C)n2n1 (centres unmarked) [compound 688]
16,3.26,CCN(CC1CCCO1)c1c(-c2c(F)cc(F)cc2F)c(Cl)nc2nc(C)nn12 (centres unmarked) [compound 159]
17,4.08,CC(C)CN(C)c1c(-c2c(F)cccc2F)c(Cl)nc2nc(C3CC3)nn12 [compound 676]
18,4.43,Fc1ccc(-c2c(Cl)nc3nc(C(F)(F)F)nn3c2NC2CCC(C(F)(F)F)CC2)c(F)c1 (centres unmarked) [compound 537]
19,3.06,CCc1nc2nc(Cl)c(-c3c(F)cc(F)cc3F)c(NCC(F)(F)F)n2n1 [compound 5]
20,4.1,CCCCN(CC)c1c(-c2ccccc2Cl)c(Cl)nc2nc(C)nn12 [compound 241]
21,3.19,CN(CCC#N)c1c(-c2ccc(F)cc2F)c(Cl)nc2nc(C(F)(F)F)nn12 [compound 542]
22,3.27,Cc1nc2nc(Cl)c(-c3ccccc3Cl)c(N3CCCC3C)n2n1 (centres unmarked) [compound 226]
23,4.03,CCC(C)Nc1c(-c2ccc(F)cc2F)c(Cl)nc2nc(C(F)(F)F)nn12 (centres unmarked) [compound 528]
24,4.77,CCCN(CC1CCCO1)c1c(-c2ccc(F)cc2F)c(Cl)nc2nc(C(F)(F)F)nn12 (centres unmarked) [compound 552]
25,3.71,Cc1nc2nc(Cl)c(-c3ccc(Cl)cc3Cl)c(N(N)CC(C)C)n2n1 [compound 816]

row,logP,SMILES
1,3.84,Cc1nc2nc(Cl)c(-c3ccccc3Cl)c(NC(C)CC(C)C)n2n1 (centres unmarked) [compound 218]
2,2.83,C=C(C)CNc1c(-c2ccccc2Cl)c(Cl)nc2nc(C)nn12 [compound 217]
3,2.94,CCN(CCOC)c1c(-c2ccccc2Cl)c(Cl)nc2nc(C)nn12 [compound 225]
4,1.61,CCCN(CCCN)c1c(-c2ccc(F)cc2F)c(Cl)nc2nc(C3CC3)nn12 [compound 726]
5,4.24,CC(Nc1c(-c2c(F)cc(F)cc2F)c(Cl)nc2nc(C(C)(C)C)nn12)C(F)(F)F (centres unmarked) [compound 9]
6,3.57,C=C(C)CN(C)c1c(-c2ccccc2Cl)c(Cl)nc2nc(C)nn12 [compound 223]
7,2.86,Cc1nc2nc(Cl)c(-c3c(F)cc(F)cc3F)c(N3CCCC3)n2n1 [compound 59]
8,4.04,Fc1ccc(-c2c(Cl)nc3nc(C(F)(F)F)nn3c2N2CCSCC2)c(F)c1 [compound 810]
9,1.77,CN(C)CCN(C)c1c(-c2ccc(F)cc2F)c(Cl)nc2nc(C(F)(F)F)nn12 [compound 538]
10,3.11,COC(=O)C(Nc1c(-c2c(F)cc(F)cc2F)c(Cl)nc2nc(C)nn12)C(C)C (centres unmarked) [compound 118]
11,2.89,CCCCNc1c(-c2c(F)cccc2F)c(Cl)nc2nc(C)nn12 [compound 560]
12,3.92,COC(=O)C1CCCCN1c1c(-c2ccc(F)cc2F)c(Cl)nc2nc(C3CC3)nn12 (centres unmarked) [compound 733]
13,4.73,C=C(C)CN(CC)c1c(-c2c(F)cc(F)cc2F)c(Cl)nc2nc(C(F)(F)F)nn12 [compound 10]
14,3.38,COCCNc1c(-c2c(F)cc(F)cc2F)c(Cl)nc2nc(C(F)(F)F)nn12 [compound 107]
15,3.18,CCN(CC1CCCO1)c1c(-c2ccc(F)cc2F)c(Cl)nc2nc(C)nn12 (centres unmarked) [compound 208]
16,2.52,CCCNc1c(-c2c(F)cccc2F)c(Cl)nc2nc(C)nn12 [compound 172]
17,3.43,Cc1nc2nc(Cl)c(-c3c(F)cc(F)cc3F)c(N3CCCCC3)n2n1 [compound 60]
18,3.73,CCN(CC)c1c(-c2ccc(F)cc2F)c(Cl)nc2nc(C3CC3)nn12 [compound 597]
19,4.21,C=C(C)CN(C)c1c(-c2c(F)cccc2Cl)c(Cl)nc2nc(C3CC3)nn12 [compound 700]
20,3.66,CCc1nc2nc(Cl)c(-c3c(F)cc(F)cc3F)c(NC3CCCC3)n2n1 [compound 75]
21,3.76,CC1CCCN1c1c(-c2ccc(F)cc2F)c(Cl)nc2nc(C3CC3)nn12 (centres unmarked) [compound 604]
22,2.52,Cc1nc2nc(Cl)c(-c3c(F)cccc3F)c(NC(C)C)n2n1 [compound 174]
23,3.27,Fc1ccc(Nc2c(-c3ccc(F)cc3F)c(Cl)nc3nc(C4CC4)nn23)cc1 [compound 738]
24,3.87,Fc1ccc(-c2c(Cl)nc3nc(C4CC4)nn3c2N2CCCCO2)c(Cl)c1 [compound 785]
25,3.22,C=C(C)CNc1c(-c2ccc(F)cc2F)c(Cl)nc2nc(C3CC3)nn12 [compound 657]
